Data published in ChEMBL document CHEMBL3734736, “A selective delta opioid receptor antagonist based on a stilbene core” (Bioorg Med Chem Lett, 2015).
Activity calls are given as the source filed them. The rule behind the calls is not given here.

What was measured:
[1] = target: T1, Delta-type opioid receptor (Homo sapiens, UniProt P41143); experiment: Antagonist activity at human delta opioid receptor over-expressed in CHO cell membrane assessed as inhibition of DPDPE-induced [35S]GTPgammaS binding at 10 uM after 1 hr by scintillation counting method; format: functional, cell membranes
[2] = target: Mu-type opioid receptor (Homo sapiens) (UniProt P35372); experiment: Agonist activity at human mu opioid receptor over-expressed in CHO cell membrane after 1 hr by [35S]GTPgammaS binding assay; format: functional, cell membranes
[3] = target: Mu-type opioid receptor (Homo sapiens) (UniProt P35372); experiment: Antagonist activity at human mu opioid receptor over-expressed in CHO cell membrane assessed as inhibition of DAMGO-induced [35S]GTPgammaS binding at 10 uM after 1 hr by scintillation counting method; format: functional, cell membranes
CHO [4] = experiment: Selectivity ratio, ratio of Ke for human mu opioid receptor over-expressed in CHO cell membrane to Ke for human delta opioid receptor over-expressed in CHO cell membrane; format: cell-based
[5] = target: Kappa-type opioid receptor (Homo sapiens) (UniProt P41145); experiment: Antagonist activity at human kappa opioid receptor over-expressed in CHO cell membrane assessed as inhibition of U69,593-induced [35S]GTPgammaS binding at 10 uM after 1 hr by scintillation counting method; format: functional, cell membranes
[6] = target: T1, Delta-type opioid receptor; experiment: Agonist activity at human delta opioid receptor over-expressed in CHO cell membrane after 1 hr by [35S]GTPgammaS binding assay; format: functional, cell membranes
[7] = target: Kappa-type opioid receptor (Homo sapiens) (UniProt P41145); experiment: Agonist activity at human kappa opioid receptor over-expressed in CHO cell membrane after 1 hr by [35S]GTPgammaS binding assay; format: functional, cell membranes
CHO [8] = experiment: Selectivity ratio, ratio of Ke for human kappa opioid receptor over-expressed in CHO cell membrane to Ke for human delta opioid receptor over-expressed in CHO cell membrane; format: cell-based

Sequence of Mu-type opioid receptor (Homo sapiens) (P35372 whole entry): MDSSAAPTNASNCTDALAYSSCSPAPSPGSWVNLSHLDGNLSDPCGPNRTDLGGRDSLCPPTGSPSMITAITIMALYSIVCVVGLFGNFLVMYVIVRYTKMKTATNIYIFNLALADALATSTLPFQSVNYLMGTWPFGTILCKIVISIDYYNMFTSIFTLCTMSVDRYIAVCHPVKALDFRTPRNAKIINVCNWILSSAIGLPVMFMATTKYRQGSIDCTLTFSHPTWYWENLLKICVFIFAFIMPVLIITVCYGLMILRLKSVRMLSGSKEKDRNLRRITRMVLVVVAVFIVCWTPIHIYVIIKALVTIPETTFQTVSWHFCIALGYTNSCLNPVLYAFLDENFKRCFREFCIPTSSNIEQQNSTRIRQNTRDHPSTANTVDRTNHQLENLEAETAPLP
T1 sequence (P41143 whole entry): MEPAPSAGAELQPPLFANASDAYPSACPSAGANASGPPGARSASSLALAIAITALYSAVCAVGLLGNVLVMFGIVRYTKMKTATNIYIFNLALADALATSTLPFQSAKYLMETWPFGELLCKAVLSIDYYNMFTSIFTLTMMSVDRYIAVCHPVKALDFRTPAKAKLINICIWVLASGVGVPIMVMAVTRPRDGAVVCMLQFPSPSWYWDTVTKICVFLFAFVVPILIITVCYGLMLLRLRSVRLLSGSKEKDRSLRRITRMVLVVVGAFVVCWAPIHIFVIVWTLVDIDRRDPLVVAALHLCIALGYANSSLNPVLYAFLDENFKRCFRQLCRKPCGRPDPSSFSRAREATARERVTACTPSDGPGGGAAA
Sequence of Kappa-type opioid receptor (Homo sapiens) (P41145 whole entry): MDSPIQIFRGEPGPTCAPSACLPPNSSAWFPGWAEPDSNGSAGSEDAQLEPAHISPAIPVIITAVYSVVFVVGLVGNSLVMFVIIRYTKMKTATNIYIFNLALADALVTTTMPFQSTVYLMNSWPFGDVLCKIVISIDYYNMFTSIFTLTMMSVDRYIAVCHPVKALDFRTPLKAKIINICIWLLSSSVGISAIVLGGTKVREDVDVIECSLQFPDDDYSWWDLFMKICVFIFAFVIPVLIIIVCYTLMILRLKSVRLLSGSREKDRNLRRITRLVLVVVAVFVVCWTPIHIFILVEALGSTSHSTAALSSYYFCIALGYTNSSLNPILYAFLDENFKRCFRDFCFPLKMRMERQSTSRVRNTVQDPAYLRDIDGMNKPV

Ke [1]: 0.025 µM
Activity [2]: inactive
Ke [3]: > 10 µM
Ke [5]: > 10 µM
EC50 [6]: 6.6 µM
Activity [7]: inactive
Structure (SMILES): COc1cc(/C=C/c2ccc(O)c(O)c2CC=C(C)C)c(C/C=C(\C)CCC=C(C)C)c(OC)c1
Ratio Ke (CHO [4]): > 400
Ratio Ke (CHO [8]): > 400
